Results from patent publication US20230114728A1 (Venatorx Pharmaceuticals, Inc., priority 2019, published 2023).
≈ marks a conversion by molar mass, not a printed value.

What was measured:
Experiment in all cases: Broth microdilution MIC in iron-depleted CAMHB (IDM)
Type in all cases: cell-based
P. aeruginosa CDC-0110 = settings: Pseudomonas aeruginosa, CDC0110, read-out: Minimum Inhibitory Concentration, P. aeruginosa CDC-0110
Summary of the method: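 CLSI broth microdilution in iron-depleted cation-adjusted Mueller Hinton broth (Chelex-treated, Ca, Mg, Zn restored, pH 7.3), inoculum 2-8×10^5 CFU/mL, 2-fold compound dilutions. Pseudomonas plates incubated 16-20 h at 37 °C; MIC read visually as lowest concentration without growth.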

A. baumannii ATCC 17978 = settings: Acinetobacter baumannii, ATCC17978, read-out: Minimum Inhibitory Concentration, ATCC 17978
Summary of the method: (§1)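 IDM = CAMHB stripped with Chelex 100 resin 2 h, supplemented CaCl2 82.5 mg/L, MgCl2 94.1 mg/L, ZnSO4 10 μM, pH 7.3. 2-fold compound dilutions; 2-8×10^5 CFU/mL; 37° C; Acinetobacter 20-24 h, Pseudomonas 16-20 h. Visual MIC.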

[1] = system: A. baumannii CDC-0033 producing NDM-1, and OXA-94; settings: Acinetobacter baumannii, read-out: Minimum Inhibitory Concentration, CDC-0033
Summary of the method: as §1

[2] = system: A. baumannii CDC-0036 OXA-65, and OXA-24; settings: Acinetobacter baumannii, read-out: Minimum Inhibitory Concentration, CDC-0036
Summary of the method: as §1

P. aeruginosa ATCC 27853 = settings: Pseudomonas aeruginosa, ATCC27853, read-out: Minimum Inhibitory Concentration, P. aeruginosa ATCC 27853
Summary of the method: as §1

[3] = system: P. aeruginosa CDC-0054 producing VIM-4, OXA-50, and PAO; settings: Pseudomonas aeruginosa, read-out: Minimum Inhibitory Concentration, P. aeruginosa CDC-0054
Summary of the method: as §1

[4] = system: P. aeruginosa CDC-0090 producing KPC-5, OXA-50, and PAO; settings: Pseudomonas aeruginosa, read-out: Minimum Inhibitory Concentration, P. aeruginosa CDC-0090
Summary of the method: as §1

[5] = system: P. aeruginosa (ΔmexAB-oprM); settings: Pseudomonas aeruginosa, read-out: Minimum Inhibitory Concentration, P. aeruginosa ΔmexAB-OprM
Summary of the method: as §1

[6] = system: P. aeruginosa CDC-0095 producing OXA-50, and PAO; settings: Pseudomonas aeruginosa, read-out: Minimum Inhibitory Concentration, P. aeruginosa CDC-0095
Summary of the method: as §1

A. baumannii ATCC 19606 = settings: Acinetobacter baumannii, ATCC19606, read-out: Minimum Inhibitory Concentration, ATCC 19606
Summary of the method: as §1

P. aeruginosa ATCC 35151 = settings: Pseudomonas aeruginosa, ATCC35151; iron-depleted MHB (IDM); hyper-permeable strain; read-out: Minimum Inhibitory Concentration, P. aeruginosa ATCC 35151
Summary of the method: as §1

[7] = system: A. baumannii CDC-0083 producing NDM-1, PER-7, OXA-23, and OXA-69; settings: Acinetobacter baumannii, read-out: Minimum Inhibitory Concentration, CDC-0083
Summary of the method: as §1

[8] = system: A. baumannii CDC-0045 producing TEM-1D, OXA-23, and OXA-69; settings: Acinetobacter baumannii, read-out: Minimum Inhibitory Concentration, CDC-0045

| SMILES | MIC (P. aeruginosa CDC-0110) [µg/mL] | MIC (A. baumannii ATCC 17978) [µg/mL] | MIC [1] [µg/mL] | MIC [2] [µg/mL] | MIC (P. aeruginosa ATCC 27853) [µg/mL] | MIC [3] [µg/mL] | MIC [4] [µg/mL] | MIC [5] [µg/mL] | MIC [6] [µg/mL] | MIC (A. baumannii ATCC 19606) [µg/mL] | MIC (P. aeruginosa ATCC 35151) [µg/mL] | MIC [7] [µg/mL] | MIC [8] [µg/mL] |
| --- | --- | --- | --- | --- | --- | --- | --- | --- | --- | --- | --- | --- | --- |
| CCN1CCN(C(=O)N[C@H](C(=O)N[C@H]2Cc3ccc(F)c(C(=O)O)c3OB2O)c2c(F)cc(O)c(O)c2Cl)C(=O)C1=O (single isomer, unassigned) [Example 125] | > 128 | > 128 | > 128 | > 128 | > 128 | > 128 | > 128 | > 128 | > 128 | > 128 | > 128 | > 128 | > 128 |
| NC1(CN2CCN(C(=O)N[C@@H](C(=O)N[C@H]3Cc4ccc(F)c(C(=O)O)c4OB3O)c3cc(F)c(O)c(O)c3Cl)C(=O)C2=O)CC1 (single isomer, unassigned) [Example 133] | 0.5 to 1 (≈ 0.767 to 1.53 µM) | 0.25 (≈ 0.384 µM) | 8 to 16 (≈ 12.3 to 24.5 µM) | 2 to 4 (≈ 3.07 to 6.14 µM) | 0.5 to 1 (≈ 0.767 to 1.53 µM) | 0.5 to 1 (≈ 0.767 to 1.53 µM) | 0.5 to 1 (≈ 0.767 to 1.53 µM) | 0.25 (≈ 0.384 µM) | 2 to 4 (≈ 3.07 to 6.14 µM) | 0.25 (≈ 0.384 µM) | 0.25 (≈ 0.384 µM) | > 128 | 8 to 16 (≈ 12.3 to 24.5 µM) |
| NC1(CN2CCN(C(=O)N[C@@H](C(=O)N[C@H]3Cc4ccc(F)c(C(=O)O)c4OB3O)c3c(F)cc(O)c(O)c3Cl)C(=O)C2=O)CC1 (single isomer, unassigned) [Example 134] | 2 to 4 (≈ 3.07 to 6.14 µM) | 0.5 to 1 (≈ 0.767 to 1.53 µM) | 32 to 64 (≈ 49.1 to 98.2 µM) | 8 to 16 (≈ 12.3 to 24.5 µM) | 2 to 4 (≈ 3.07 to 6.14 µM) | 32 to 64 (≈ 49.1 to 98.2 µM) | 2 to 4 (≈ 3.07 to 6.14 µM) | 0.25 (≈ 0.384 µM) | 32 to 64 (≈ 49.1 to 98.2 µM) | 0.5 to 1 (≈ 0.767 to 1.53 µM) | 0.25 (≈ 0.384 µM) | > 128 | 32 to 64 (≈ 49.1 to 98.2 µM) |
| NCCN1CCN(C(=O)N[C@@H](C(=O)N[C@H]2Cc3ccc(F)c(C(=O)O)c3OB2O)c2cc(F)c(O)c(O)c2Cl)C(=O)C1=O (single isomer, unassigned) [Example 179] | 0.5 to 1 (≈ 0.799 to 1.6 µM) | 0.5 to 1 (≈ 0.799 to 1.6 µM) | 8 to 16 (≈ 12.8 to 25.6 µM) | 2 to 4 (≈ 3.2 to 6.39 µM) | 0.5 to 1 (≈ 0.799 to 1.6 µM) | 0.5 to 1 (≈ 0.799 to 1.6 µM) | 2 to 4 (≈ 3.2 to 6.39 µM) | 0.25 (≈ 0.4 µM) | 2 to 4 (≈ 3.2 to 6.39 µM) | 0.5 to 1 (≈ 0.799 to 1.6 µM) | 0.25 (≈ 0.4 µM) | > 128 | 8 to 16 (≈ 12.8 to 25.6 µM) |
| NCCCN1CCN(C(=O)N[C@@H](C(=O)N[C@H]2Cc3ccc(F)c(C(=O)O)c3OB2O)c2cc(F)c(O)c(O)c2Cl)C(=O)C1=O (single isomer, unassigned) [Example 180] | 0.25 (≈ 0.391 µM) | 0.5 to 1 (≈ 0.782 to 1.56 µM) | 8 to 16 (≈ 12.5 to 25 µM) | 8 to 16 (≈ 12.5 to 25 µM) | 0.5 to 1 (≈ 0.782 to 1.56 µM) | 0.5 to 1 (≈ 0.782 to 1.56 µM) | 2 to 4 (≈ 3.13 to 6.25 µM) | 0.25 (≈ 0.391 µM) | 2 to 4 (≈ 3.13 to 6.25 µM) | 0.5 to 1 (≈ 0.782 to 1.56 µM) | 0.25 (≈ 0.391 µM) | > 128 | 2 to 4 (≈ 3.13 to 6.25 µM) |
| C[C@@H](O)[C@@H](NC(=O)N1CCN(CCNC(=O)c2c(F)cc(O)c(O)c2Cl)C(=O)C1=O)C(=O)N[C@H]1Cc2ccc(F)c(C(=O)O)c2OB1O [Example 102, (R)-3-((2R,3R)-2-(4-(2-(2-chloro-6-fluoro-3,4-dihydroxybenzamido)ethyl)-2,3-dioxopiperazine-1-carboxamido)-3-hydroxybutanamido)-7-fluoro-2-hydroxy-3,4-dihydro-2H-benzo[e][1,2]oxaborinine-8-carboxylic acid] | 0.5 to 1 (≈ 0.717 to 1.43 µM) | 2 to 4 (≈ 2.87 to 5.73 µM) | 32 to 64 (≈ 45.9 to 91.7 µM) | 32 to 64 (≈ 45.9 to 91.7 µM) | 2 to 4 (≈ 2.87 to 5.73 µM) | 32 to 64 (≈ 45.9 to 91.7 µM) | 2 to 4 (≈ 2.87 to 5.73 µM) | 0.5 to 1 (≈ 0.717 to 1.43 µM) | 2 to 4 (≈ 2.87 to 5.73 µM) | 2 to 4 (≈ 2.87 to 5.73 µM) | 0.5 to 1 (≈ 0.717 to 1.43 µM) | 32 to 64 (≈ 45.9 to 91.7 µM) | 32 to 64 (≈ 45.9 to 91.7 µM) |
| NS(=O)(=O)Nc1cccc(C(NC(=O)N2CCN(Cc3c(F)cc(O)c(O)c3Cl)C(=O)C2=O)C(=O)N[C@H]2Cc3cccc(C(=O)O)c3OB2O)c1 (stereo partly drawn) [Example 131, (3R)-3-(2-(4-(2-chloro-6-fluoro-3,4-dihydroxybenzyl)-2,3-dioxopiperazine-1-carboxamido)-2-(3-(sulfamoylamino)phenyl)acetamido)-2-hydroxy-3,4-dihydro-2H-benzo[e][1,2]oxaborinine-8-carboxylic acid] | 2 to 4 (≈ 2.67 to 5.34 µM) | 0.5 to 1 (≈ 0.668 to 1.34 µM) | > 128 | > 128 | 8 to 16 (≈ 10.7 to 21.4 µM) | > 128 | 2 to 4 (≈ 2.67 to 5.34 µM) | 0.25 (≈ 0.334 µM) | 8 to 16 (≈ 10.7 to 21.4 µM) | > 128 | 0.25 (≈ 0.334 µM) | > 128 | > 128 |
| NS(=O)(=O)c1cc(O)cc(C(NC(=O)N2CCN(Cc3c(F)cc(O)c(O)c3Cl)C(=O)C2=O)C(=O)N[C@H]2Cc3cccc(C(=O)O)c3OB2O)c1 (stereo partly drawn) [Example 132, (3R)-3-(2-(4-(2-chloro-6-fluoro-3,4-dihydroxybenzyl)-2,3-dioxopiperazine-1-carboxamido)-2-(3-hydroxy-5-sulfamoylphenyl)acetamido)-2-hydroxy-3,4-dihydro-2H-benzo[e][1,2]oxaborinine-8-carboxylic acid] | 2 to 4 (≈ 2.67 to 5.33 µM) | > 128 | > 128 | > 128 | 8 to 16 (≈ 10.7 to 21.3 µM) | > 128 | 2 to 4 (≈ 2.67 to 5.33 µM) | 0.25 (≈ 0.333 µM) | > 128 | 8 to 16 (≈ 10.7 to 21.3 µM) | 0.5 to 1 (≈ 0.667 to 1.33 µM) | > 128 | > 128 |
